What was measured:
[1] = system: cigarette smoke-induced COPD; assay: Subchronic (11 day) cigarette smoke exposure COPD model; assay type: in vivo, mouse; settings: subchronic 11 day model; for inhibition of smoke-induced increase in lymphocytes in BAL / inhibition of smoke-induced increase in macrophages in BAL / inhibition of smoke-induced increase in neutrophils in BAL / inhibition of smoke-induced increase in total cells in BAL: oral 1 mg/kg/day for 11 days; for effects compared with roflumilast: roflumilast 5 mg/kg/day
Protocol: Infiltration of inflammatory cells into the bronchoalveolar lavage fluid (BALF) and BALF levels of chemokines involved in inflammation and tissue turnover/repair were measured to assess the influences of GSNOR inhibitors on some of the early events associated with the initiation and progression of COPD. […] In animal models, changes in lung pathology are only evident after extended (several months) duration of exposure to cigarette smoke, thus making chronic models prohibitive as effective screening tools. […] The key roles of inflammation in the initiation and progression of COPD, make these short duration models relevant for initial tests of efficacy of novel therapeutics. Female C57Bl/6 mice (N=10 per group) were exposed to cigarette smoke generated from Marlboro 100 cigarettes without filters. Exposure times were 25 min. on study day 1, 35 min. on study day 2, and 45 min. on study days 3 to 11. GSNOR inhibitors were administered one hour prior to smoke exposure on each day. GSNOR inhibitors were dosed orally at 1 to 10 mg/kg/day for 11 days. […] The effect of GSNOR inhibitors were compared to vehicle treated controls and expressed as percent inhibition of the cigarette smoke induced increases in BALF cell numbers. Roflumilast was used as the positive control for the study and was dosed at 5 mg/kg/day. A group of naïve mice (N=10) was exposed to air and dosed with vehicle as a negative control for the study.

[2] = system: dextran sodium sulfate (DSS)-induced IBD; assay: Chronic treatment model of DSS-induced IBD; assay type: in vivo, mouse; settings: oral 10 mg/kg/day for up to 14 days, treatment regimen
Excerpt: Acute and chronic models of dextran sodium sulfate (DSS)-induced IBD in mice were used to explore efficacy of GSNORi against this disease. Acute and chronic DSS-induced IBD are widely used and well characterized models that induce pathological changes in the colon similar to those observed in the human disease. In these models and in human disease, epithelial cells within the crypts of the colon are disrupted, leading to dysfunction of the epithelial barrier and the ensuing tissue inflammation, edema, and ulceration. GSNORi therapy may benefit IBD by restoring s-nitrosoglutathione (GSNO) levels, and thus prevent or reverse the epithelial barrier dysfunction. Experimental IBD was induced by administration of DSS in the drinking water of male C57Bl/6 mice (N=10 to 12 mice per group) for 6 consecutive days. GSNORi was dosed orally at doses of 10 mg/kg/day for 14 days starting one day after cessation of DSS exposure. […] Levels of circulating cytokines involved in inflammatory pathways were also assessed. The effect of GSNORi was compared to vehicle treated controls. […] Naïve mice (N=5) were also assessed as a normal tissue control.

[3] = target: T1, S-nitrosoglutathione reductase (GSNOR) (Homo sapiens, UniProt P11766); assay: GSNOR assay (inhibition of GSNOR activity, NADH absorbance at 340 nm); assay type: biochemical; settings: GSNOR inhibitor activity, Tables 1-6; read-out: IC50 range
T1 construct: made in house; host or cells: E. coli
Outline: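 Recombinant GSNOR purified from E. coli, tag removed. Final conditions: 100 mM NaPO4 pH 7.4, 0.240 mM GSNO, 0.300 mM NADH, 0.5 μg/mL enzyme, 1% DMSO; NADH loss followed as 340 nm absorbance change over 3 min at 25 °C. Compounds 100–0.003 μM, triplicate; IC50 by curve analysis.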

[4] = system: ovalbumin (OVA)-induced asthma; assay: Mouse model of ovalbumin (OVA)-induced asthma (Penh, eosinophil infiltrate in BALF); assay type: in vivo; settings: three oral doses of 10 mg/kg at 48 h, 24 h, and 1 h prior to assessment
Protocol: A mouse model of ovalbumin (OVA)-induced asthma was used to screen GSNOR inhibitors for efficacy against methacholine (MCh)-induced bronchoconstriction/airway hyper-responsiveness. This is a widely used and well characterized model that presents with an acute, allergic asthma phenotype with similarities to human asthma. Efficacy of GSNOR inhibitors was assessed using a protocol in which GSNOR inhibitors were administered after OVA sensitization and airway challenge, and prior to challenge with MCh. Bronchoconstriction in response to challenge with increasing doses of MCh was assessed using whole body plethysmography (Penh; Buxco). The amount of eosinophil infiltrate into the bronchoaveolar lavage fluid (BALF) was also determined as a measure of lung inflammation. The effects of GSNOR inhibitors were compared to vehicles and to Combivent (inhaled; IH) as the positive control.
OVA (500 μg/ml) in PBS was mixed with equal volumes of 10% (w/v) aluminum potassium sulfate in distilled water and incubated for 60 min. at room temperature after adjustment to pH 6.5 using 10 N NaOH. After centrifugation at 750×g for 5 min, the OVA/alum pellet was resuspended to the original volume in distilled water. Mice received an intraperitoneal (IP) injection of 100 μg OVA (0.2 mL of 500 μg/mL in normal saline) complexed with alum on day 0. Mice were anesthetized by IP injection of a 0.2-mL mixture of ketamine and xylazine (0.44 and 6.3 mg/mL, respectively) in normal saline and were placed on a board in the supine position. Two hundred fifty micrograms (100 μl of a 2.5 mg/ml) of OVA (on day 8) and 125 μg (50 μl of 2.5 mg/ml) OVA (on days 15, 18, and 21) were placed on the back of the tongue of each animal.
In vivo airway responsiveness to methacholine was measured 24 h after the last OVA challenge in conscious, freely moving, spontaneously breathing mice with whole body plethysmography using a Buxco chamber (Wilmington, N.C.). Mice were challenged with aerosolized saline or increasing doses of methacholine (5, 20, and 50 mg/mL) generated by an ultrasonic nebulizer for 2 min. The degree of bronchoconstriction was expressed as enhanced pause (Penh), a calculated dimensionless value, which correlates with the measurement of airway resistance, impedance, and intrapleural pressure in the same mouse. Penh readings were taken and averaged for 4 min. after each nebulization challenge. Penh is calculated as follows: Penh=[(Te/Tr−1)×(PEF/PIF)], where Te is expiration time, Tr is relaxation time, PEF is peak expiratory flow, and PIF is peak inspiratory flow×0.67 coefficient. The time for the box pressure to change from a maximum to a user-defined percentage of the maximum represents the relaxation time. The Tr measurement begins at the maximum box pressure and ends at 40%.
After measurement of airway hyper-reactivity, the mice were exsanguinated by cardiac puncture, and then BALF was collected from either both lungs or from the right lung after tying off the left lung at the mainstem bronchus. Total BALF cells were counted from a 0.05 mL aliquot, and the remaining fluid was centrifuged at 200×g for 10 min at 4° C. Cell pellets were resuspended in saline containing 10% BSA with smears made on glass slides. Eosinophils were stained for 5 min. with 0.05% aqueous eosin and 5% acetone in distilled water, rinsed with distilled water, and counterstained with 0.07% methylene blue. Alternatively, eosinophils and other leukocytes were stained with DiffQuik.
GSNOR inhibitors were reconstituted in phosphate buffered saline (PBS), pH 7.4, or 0.5% w/v carboxy methylcellulose at concentrations ranging from 0.00005 to 3 mg/mL. GSNOR inhibitors were administered to mice (10 mL/kg) as a single dose or multiple dose either intravenously (IV) or orally via gavage. Dosing was performed from 30 min. to 72 h prior to MCh challenge. Effects of GSNOR inhibitors were compared to vehicle dosed in the same manner.
Combivent was used as the positive control in all studies. […]

[5] = Mouse pharmacokinetic (PK) study; assay type: in vivo; settings: male, BALB/c, plasma, po, 10 mg/kg, male BALB/c mice, 2 mg/kg IV, 10 mg/kg PO, read-out: oral bioavailability (% F)
Excerpt: The mouse was used to determine the pharmacokinetics of compounds of the invention. This species is widely used to assess the bioavailability of compounds by administering both oral (PO) and intravenous (IV) test articles. Efficacy of the compounds of the invention was compared by assessing plasma exposure in male BALB/c mice either via IV or PO administration at the times of peak activity.
Compounds of the invention were reconstituted in a phosphate buffered saline (PBS)/10% Solutol (HS 15) clear solution resulting in a concentration of 0.2 mg/mL and administered to mice (2 mg/kg) as a single IV dose. Animals were dosed via the lateral tail vein. Blood samples were collected at designated time points (0.083, 0.25, 0.5, 1, 2, 4, 8, 16, 24 hours) by cardiac puncture under isoflurane anesthesia (up to 1 mL blood per animal). The blood was collected into tubes containing Li-Heparin. The blood samples were kept on ice until centrifugation within approximately 30 minutes of collection. The plasma was transferred into labeled polypropylene tubes and frozen at −70° C. until analyzed by LC/MS/MS.
The compounds of the invention were reconstituted in 40% Propylene Glycol/40% Propylene Carbonate/20% of a 5% Sucrose clear solution resulting in a concentration of 2 mg/mL and administered to mice (10 mg/kg) as a single oral dose via gavage. Blood samples were collected at 0.25, 0.5, 1, 2, 4, 8, 12, 16, 20 and 24 hours post dose by cardiac puncture under isoflurane anesthesia. The blood was collected in tubes containing Li-Heparin. The blood samples were kept on ice until centrifugation within approximately 30 minutes of collection. The plasma was transferred into labeled polypropylene tubes and frozen at −70° C. until analyzed by LC/MS/MS.
Plasma samples at each timepoint were analyzed using a LC-MS/MS with a lower limit of quantification (LLOQ) of 1 ng/mL. Plasma was analyzed to determine the amount of the compound of the invention in each sample and regression curves generated for each compounds of the invention in the relevant matrixes.
WinNonlin analysis was used for calculating PK parameters for both the IV and PO administrations:
PK parameters for IV portion—AUClast; AUCINF; T1/2; Cl; Vss; Cmax; MRT
PK parameters for PO portion—AUClast; AUCINF; T1/2; Cmax; Cl, MRT.
In addition to the above PK parameters, bioavailability (% F) was calculated.

[6] = system: dextran sodium sulfate (DSS)-induced IBD; assay: Acute prophylactic model of DSS-induced IBD; assay type: in vivo, mouse; settings: oral 1 mg/kg/day for 10 days, prophylactic
Excerpt: Acute and chronic models of dextran sodium sulfate (DSS)-induced IBD in mice were used to explore efficacy of GSNORi against this disease. Acute and chronic DSS-induced IBD are widely used and well characterized models that induce pathological changes in the colon similar to those observed in the human disease. In these models and in human disease, epithelial cells within the crypts of the colon are disrupted, leading to dysfunction of the epithelial barrier and the ensuing tissue inflammation, edema, and ulceration. GSNORi therapy may benefit IBD by restoring s-nitrosoglutathione (GSNO) levels, and thus prevent or reverse the epithelial barrier dysfunction. Experimental IBD was induced by administration of DSS in the drinking water of male C57Bl/6 mice (N=8 to 10 mice per group) for 6 consecutive days. GSNORi was dosed orally at doses of 0.1 to 10 mg/kg/day for 10 days starting two days prior to and continuing two days post DSS exposure. […] Levels of circulating cytokines involved in inflammatory pathways were also assessed. The effect of GSNORi was compared to vehicle treated controls. […] Naïve mice (N=5) were also assessed as a normal tissue control.

T1 sequence (P11766 whole entry): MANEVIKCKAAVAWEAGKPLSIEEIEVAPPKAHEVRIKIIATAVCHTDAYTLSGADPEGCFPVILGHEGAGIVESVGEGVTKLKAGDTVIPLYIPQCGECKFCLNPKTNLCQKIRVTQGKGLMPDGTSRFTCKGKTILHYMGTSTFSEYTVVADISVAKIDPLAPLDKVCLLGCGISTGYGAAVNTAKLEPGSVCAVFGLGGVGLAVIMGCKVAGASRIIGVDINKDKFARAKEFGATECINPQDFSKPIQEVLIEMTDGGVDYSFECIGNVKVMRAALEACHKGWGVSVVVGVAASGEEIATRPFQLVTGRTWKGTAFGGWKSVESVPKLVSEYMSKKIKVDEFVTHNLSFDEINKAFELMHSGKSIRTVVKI

| SMILES | inhibition of smoke-induced increase in lymphocytes in BAL [1] | inhibition of smoke-induced increase in macrophages in BAL [1] | inhibition of smoke-induced increase in neutrophils in BAL [1] | inhibition of smoke-induced increase in total cells in BAL [1] | effects compared with roflumilast [1] | decrease of percent of mice with severe colon injury scores via endoscopy [2] | decrease of percent of mice with severe colon injury scores via histopathology [2] | IC50 [3] | decrease of eosinophil infiltration in BAL [4] | bioavailability [5] | decrease of percent of mice with severe colon injury scores via endoscopy [6] | decrease of percent of mice with severe colon injury scores via histopathology [6] |
| --- | --- | --- | --- | --- | --- | --- | --- | --- | --- | --- | --- | --- |
| O=C(O)c1ccc(-c2ccc3cc(O)ccc3n2)c(F)c1 [Compound I-13] | 60% | 53% | 67% | 56% | comparable to those of roflumilast | 52 % of vehicle control | 53 % of vehicle control | < 100 nM |  |  |  |  |
| Cc1cc(C(=O)O)ccc1-c1ccc2cc(O)ccc2n1 [Compound I-27] | 46% | 41% | 64% | 44% | comparable to those of roflumilast |  |  | < 100 nM | 23 % of vehicle control |  |  |  |
| Oc1ccc2nc(-c3ccc(-c4nnn[nH]4)cc3)ccc2c1 [Compound I-4] |  |  |  |  |  |  |  | < 100 nM |  | > 9% |  |  |
| O=C(O)c1ccc(-c2nc3ccc(O)cc3cc2Cl)cc1 [Compound I-19] |  |  |  |  |  |  |  | < 100 nM |  | > 9% |  |  |
| O=C(O)c1ccc(-c2nc3ccc(O)cc3cc2Cl)c(F)c1 [Compound I-28] |  |  |  |  |  |  |  | < 100 nM |  | > 9% |  |  |
| O=C(O)c1ccc(-c2ccc3cc(O)ccc3c2)c(Cl)c1 [III-1] |  |  |  |  | comparable to those of roflumilast | 50 % of vehicle control | 17 % of vehicle control | < 100 nM |  |  | 17 % of vehicle control | 21 % of vehicle control |
